Experimental data published in PubChem BioAssay (NCI).
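1) Cells in 96-well plates. 2) Compound, 48 h, 5 concentrations. 3) Linear interpolation between surrounding doses. 4) Unreached endpoint = highest concentration. The concentration for 50% growth inhibition is given as GI50. TGI marks complete inhibition of growth.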

How the values were obtained:
Experiment in all cases: growth of human tumour cells (NCI), 48 h
CAKI-1 renal = system: CAKI-1 renal
EKVX NSCLC = system: EKVX NSCLC
HCT-15 colon = system: HCT-15 colon
K-562 leukemia = system: K-562 leukemia
MCF7 breast = system: MCF7 breast
OVCAR-3 ovarian = system: OVCAR-3 ovarian
SF-539 CNS = system: SF-539 CNS
SNB-75 CNS = system: SNB-75 CNS
U251 CNS = system: U251 CNS
UACC-62 melanoma = system: UACC-62 melanoma

Row | SMILES | TGI (CAKI-1 renal) [µM] | TGI (EKVX NSCLC) [µM] | TGI (HCT-15 colon) [µM] | TGI (K-562 leukemia) [µM] | TGI (MCF7 breast) [µM] | TGI (OVCAR-3 ovarian) [µM] | TGI (SF-539 CNS) [µM] | TGI (SNB-75 CNS) [µM] | TGI (U251 CNS) [µM] | TGI (UACC-62 melanoma) [µM] | GI50 (CAKI-1 renal) [µM] | GI50 (EKVX NSCLC) [µM] | GI50 (HCT-15 colon) [µM] | GI50 (K-562 leukemia) [µM] | GI50 (MCF7 breast) [µM] | GI50 (OVCAR-3 ovarian) [µM] | GI50 (SF-539 CNS) [µM] | GI50 (SNB-75 CNS) [µM] | GI50 (U251 CNS) [µM] | GI50 (UACC-62 melanoma) [µM]
1 | C=C1C(C2(C)C(OC(C)=O)CC(=O)OC(C)(COC(C)=O)C2CC(=O)OC)C(OC=O)C(OC(=O)C(O)C(C)CC)C2(C)C(c3ccoc3)CC(=O)C12O (configuration not stated) | 11.7 | > 100 | > 100 | > 31.6 | > 100 | > 100 | > 31.6 | > 100 | > 100 | > 100 |  |  |  |  |  |  |  |  |  | 
2 | O=C(O)CCCSc1ccccc1 | > 100 | > 100 | > 100 | > 100 | > 100 | > 100 | > 100 | > 100 | > 100 | > 100 |  |  |  |  |  |  |  |  |  | 
3 | NC[C@H]1Nc2ccccc2[C@@H](O)C1O (some centres not stated) | > 100 | > 100 | > 100 | > 100 | > 100 | > 100 | > 100 | > 100 | > 100 | > 100 |  |  |  |  |  |  |  |  |  | 
4 | CCCN(CCC)c1ccc(/C=C/c2ccc3cc(OCC)ccc3n2)cc1 | > 100 | > 100 | > 100 | > 100 | > 100 | > 100 | > 100 | > 100 | > 100 | > 100 | 73.3 | 91.4 | 9.7 | 9.37 | > 100 | > 100 | > 100 | 54.7 | 48.5 | 72.8
5 | O=C1CC(=O)N(C(=O)c2nn(-c3ccc(Cl)cc3)cc2O)N1 | 12.7 | > 100 | > 100 | 8.15 | > 100 | 6.16 | > 63 | > 100 | > 100 | 9.41 | 0.639 | 0.845 | 0.486 | 0.292 | 1.24 | 1.31 | 0.371 | 0.242 | 0.147 | 0.381
6 | C/C(=N\Nc1cc(C)c2ccccc2n1)c1ccccn1 | 0.544 |  | 1.81 | 1.5 | 1.16 | 3.51 | 0.693 | 5.4 | 1.16 | 0.631 |  |  | < 0.0493 | 0.0865 | 0.0894 | < 0.0194 | 0.0778 | 0.212 | 0.0368 | 0.11
7 | C[C@@H](O)[C@H](NC(=O)N[C@@H](CC(N)=O)c1nc([C@@H](N)CO)no1)C(=O)O | > 100 | > 100 | > 100 |  | > 100 | > 100 | > 100 | > 100 | > 100 | > 100 | > 100 | > 100 | > 100 |  | > 100 | > 100 | > 100 | > 100 | > 100 | > 100
8 | COC(=O)CC[C@]1(C)O[C@H]2[C@H]([C@@H](C)CCCC(C)=O)OC(=O)[C@@H]2C[C@H]1O | > 100 | > 100 | > 100 | > 100 | > 100 | > 100 | > 100 | > 100 | > 100 | > 100 | 32 | > 100 | > 100 | > 100 | > 100 | 31.5 | 84.9 | > 100 | > 100 | > 100
9 | O=C1c2ccccc2-c2oc(=O)c3ccccc3c21 | > 100 | > 100 | > 100 |  | > 100 | > 100 | > 100 | > 100 | > 100 | > 100 |  |  |  |  |  |  |  |  |  | 
10 | CC(=C/C=C/C=C(C)\C=C\C=C(\C)C(=O)O)/C=C/C=C(/C)C(=O)O | > 100 |  | > 100 | > 100 | > 100 | > 100 | > 100 | > 100 | > 100 | > 100 |  |  |  |  |  |  |  |  |  | 
11 | COc1cc2c(cc1OC)-c1ccc3cc4c(cc3c1N(CCCn1ccnc1)C2)OCO4 |  | > 100 | > 100 |  | 74.1 | 5.97 | 7.36 | 19.6 | 3.97 | 2.72 |  | 31.9 | 58.3 |  | 0.364 | 2.26 | 2.11 | 1.75 | 1.02 | 0.67
12 | O=C1O/C(=C\c2ccccc2)N(c2ccccc2)C1=O | > 100 | > 100 | > 100 | > 100 | > 100 | > 100 |  | > 100 | > 100 | > 100 |  |  |  |  |  |  |  |  |  | 
13 | C=C1C(=O)O[C@H]2[C@H]1CC/C(COC(=O)c1cc3ccccc3o1)=C\CC[C@@]1(C)O[C@@H]21 |  | 6.12 | 2.86 | 7.43 | 2.18 | 1.72 | 2.84 | 3.18 | 3.16 | 3.23 |  | 2.02 | 1.07 | 1.15 | 0.395 | 0.485 | 1.45 | 1.34 | 1.63 | 1.68
14 | CC(=O)N1C/C(=C/c2ccc(Cl)cc2)C(=O)/C(=C/c2ccc(Cl)cc2)C1 | 8.5 |  | 1.52 | > 100 | 1.13 | 1.79 | 2.03 | 2.64 | 1.18 | 1.84 | 2.53 |  | 0.446 | 0.335 | 0.292 | 0.583 | 0.785 | 0.963 | 0.337 | 0.664
15 | N#Cc1ccc2c(c1)C(=O)c1c-2n(CCCCl)c(=O)c2cc([N+](=O)[O-])ccc12 | > 100 | > 100 | > 100 |  | > 100 | > 100 | 10.5 | 11.5 | 16.4 | 9.96 | 18 | 50.4 | 58.4 |  | 0.38 | 8.77 | 2.62 | 3.51 | 1.63 | 1.13
